In article PMC10066365, “Nemacol is a small molecule inhibitor of C. elegans vesicular acetylcholine transporter with anthelmintic potential” (Nature Communications, 2023):
Values joined by “and” are separate entries in the source; they are usually repeats but may differ in a detail not shown here. Equal entries are not always repeated.

How the values were obtained:
[1] = system: Dirofilaria immitis microfilariae; test: Dirofilaria immitis microfilariae immobility assay (DiroImager, 72 h); details: for % effect (motility), DIROIM MF: Dirofilaria immitis microfilariae
Method: We conducted experiments with the Missouri isolate of Dirofilaria immitis in two labs. In the first set of experiments, shown as part of Fig. 3c, D. immitis microfilariae and larval stage 3 (L3) worms were assayed in the laboratories of Bayer Animal Health GmbH (Monheim, Germany). For microfilariae immobility assays, approximately 250 freshly purified microfilariae were cultured in single wells of a 96-well microtiter plate containing supplemented RPMI 1640 medium[68],[69]. […] Microfilariae exposed to medium substituted with 1% DMSO were used as negative controls. Motility of microfilariae was evaluated after 72 h of drug exposure using an image-based approach—DiroImager, developed by Bayer Technology Services. As described in detail in refs. [68],[69], the DiroImager is an automated high-throughput platform that allows for high-resolution optical imaging of an entire 96-well microtiter plate.

[2] = system: Dirofilaria immitis L3/L4; test: Dirofilaria immitis L3/L4 motility assay (DiroImager, 72 h); details: Dirofilaria immitis L4
[3] = system: Pristionchus pacificus; test: Pristionchus pacificus motor disruption dose-response on solid media, 1 h; details: for mean % any phene (coiled, jerky-Unc or paralyzed): Pristionchus pacificus young adults, mean of three biological replicates; for EC50: Pristionchus pacificus, 1 h, read-out: P. pacificus motor disruption EC50
[4] = system: C. elegans; test: C. elegans motor phenotype scoring on solid media (Punc/jerky-unc, coiled, paralyzed), wild-type young adults; type: in vivo, Caenorhabditis elegans; details: for any phene, mean % fraction of young adults exhibiting any phenotype (coiled, jerky-Unc or paralyzed) / atypical locomotion (number of animals) / coiled (number of animals) / no phene (number of animals) / paralyzed (number of animals) / any phene: mean % fraction of young adults exhibiting any phenotype (coiled, jerky-Unc or paralyzed) / any phene (mean % fraction of young adults exhibiting any phenotype: coiled, jerky-Unc or paralyzed): one hour; for any phene, mean % fraction of young adults exhibiting any phenotype (coiled, jerky-Unc or paralyzed) / any phene: mean % fraction of young adults exhibiting any phenotype (coiled, jerky-Unc or paralyzed) / any phene (mean % fraction of young adults exhibiting any phenotype: coiled, jerky-Unc or paralyzed): mean of three biological replicates; for atypical locomotion (number of animals) / coiled (number of animals) / no phene (number of animals) / paralyzed (number of animals): young adults, 20 animals per trial; for EC50: Caenorhabditis elegans, any motor phenotype after 1 h on solid media, ± 95% CI, read-out: C. elegans - motor disruption EC50
[5] = conc 3.75, observed at one hour
[6] = 3.75uM, single replicate counts
[7] = 3.75uM, single technical replicate
[8] = 15uM, single technical replicate
[9] = 60uM, single technical replicate
[10] = 3.75uM, third c14 line of each analog
[11] = 15uM, second c14 line of each analog
[12] = 60uM, first c14 line of each analog

| SMILES | % effect (motility), DIROIM MF ([1]; 0.016 µM) | % effect (motility), DIROIM MF ([1]; 0.08 µM) | % effect (motility), DIROIM MF ([1]; 0.4 µM) | % effect (motility), DIROIM MF ([1]; 2 µM) | % effect (motility), DIROIM MF ([1]; 10 µM) | % effect (motility), DIROIM L4 ([2]; 2 µM) | % effect (motility), DIROIM L4 ([2]; 10 µM) | % effect (motility), DIROIM L4 ([2]; 50 µM) | mean % any phene (coiled, jerky-Unc or paralyzed) [3, 5] | mean % any phene (coiled, jerky-Unc or paralyzed) ([3]; conc 15, observed at one hour) | mean % any phene (coiled, jerky-Unc or paralyzed) ([3]; conc 60, observed at one hour) | EC50 [3] | EC50 [4] | any phene (mean % fraction of young adults exhibiting any phenotype: coiled, jerky-Unc or paralyzed) [4, 10] | any phene (mean % fraction of young adults exhibiting any phenotype: coiled, jerky-Unc or paralyzed) [4, 11] | any phene (mean % fraction of young adults exhibiting any phenotype: coiled, jerky-Unc or paralyzed) [4, 12] | also measured |
| --- | --- | --- | --- | --- | --- | --- | --- | --- | --- | --- | --- | --- | --- | --- | --- | --- | --- |
| Clc1ccc(N2CCN(CC3CCCCC3)CC2)cc1 [Nemacol-10] | 0% | 0% | 0% | 0% | 0% | 0% | 0% | 25% | 0.8333% | 3.333% | 6.667% | > 60 µM | 45.7 ± 15.7 µM | – | – | – | any phene, mean % fraction of young adults exhibiting any phenotype (coiled, jerky-Unc or paralyzed) ([4]; 3.75uM): 0%; atypical locomotion (number of animals) [4, 6]: 0; coiled (number of animals) [4, 6]: 0; no phene (number of animals) [4, 6]: 20; paralyzed (number of animals) [4, 6]: 0; any phene, mean % fraction of young adults exhibiting any phenotype (coiled, jerky-Unc or paralyzed) ([4]; 15uM): 27.5%; atypical locomotion (number of animals) ([4]; 15uM, single replicate counts): 5 and 4 and 3 and 1 and 2; coiled (number of animals) ([4]; 15uM, single replicate counts): 1 and 2 and 0 and 3; no phene (number of animals) ([4]; 15uM, single replicate counts): 14 and 13 and 18; paralyzed (number of animals) ([4]; 15uM, single replicate counts): 0 and 1 and 3; any phene, mean % fraction of young adults exhibiting any phenotype (coiled, jerky-Unc or paralyzed) ([4]; 60uM): 55.6944%; atypical locomotion (number of animals) ([4]; 60uM, single replicate counts): 8 and 14 and 12 and 11 and 6 and 7; coiled (number of animals) ([4]; 60uM, single replicate counts): 1 and 0 and 2; no phene (number of animals) ([4]; 60uM, single replicate counts): 11 and 4 and 7 and 8 and 12 and 13; paralyzed (number of animals) ([4]; 60uM, single replicate counts): 4 and 2 and 0 |
| CCN1CCN(CC2CCCCC2)CC1 [Nemacol-11] | 0% | 0% | 0% | 0% | 0% | 10% | 5% | 0% | 0% | 0% | 3.333% | > 60 µM | > 60 µM | – | – | – | any phene, mean % fraction of young adults exhibiting any phenotype (coiled, jerky-Unc or paralyzed) ([4]; 3.75uM): 3.333%; atypical locomotion (number of animals) [4, 6]: 0 and 3 and 1; coiled (number of animals) [4, 6]: 0; no phene (number of animals) [4, 6]: 20 and 17 and 19; paralyzed (number of animals) [4, 6]: 0; any phene, mean % fraction of young adults exhibiting any phenotype (coiled, jerky-Unc or paralyzed) ([4]; 15uM): 6.667%; atypical locomotion (number of animals) ([4]; 15uM, single replicate counts): 0 and 5 and 3; coiled (number of animals) ([4]; 15uM, single replicate counts): 0; no phene (number of animals) ([4]; 15uM, single replicate counts): 20 and 15 and 17; paralyzed (number of animals) ([4]; 15uM, single replicate counts): 0; any phene, mean % fraction of young adults exhibiting any phenotype (coiled, jerky-Unc or paralyzed) ([4]; 60uM): 19.1667%; atypical locomotion (number of animals) ([4]; 60uM, single replicate counts): 1 and 0 and 13 and 9; coiled (number of animals) ([4]; 60uM, single replicate counts): 0; no phene (number of animals) ([4]; 60uM, single replicate counts): 19 and 20 and 7 and 11; paralyzed (number of animals) ([4]; 60uM, single replicate counts): 0 |
| O=[N+]([O-])c1ccc(N2CCN(C3CCCC3)CC2)cc1 [Nemacol-61] | 0% | 0% | 0% | 0% | 40% | 0% | 0% | 20% | 12.5% | 9.167% | 88.3333% | 31.2 ± 9.6 µM | 6.8 ± 4.1 µM | – | – | – | EC50 ([1]; Dirofilaria immitis, 72 h, read-out: Dirofilaria immitis filariae EC50): 11 µM; atypical locomotion (number of animals) [4, 7]: 0 and 1; coiled (number of animals) [4, 7]: 0 and 17 and 13; no phene (number of animals) [4, 7]: 20 and 19 and 3 and 7; paralyzed (number of animals) [4, 7]: 0; any phene: mean % fraction of young adults exhibiting any phenotype (coiled, jerky-Unc or paralyzed) ([4]; 3.75uM): 25.8333%; atypical locomotion (number of animals) [4, 8]: 10 and 13 and 12 and 2 and 4; coiled (number of animals) [4, 8]: 0 and 1 and 2 and 18 and 16; no phene (number of animals) [4, 8]: 8 and 7 and 5 and 4 and 0; paralyzed (number of animals) [4, 8]: 2 and 0 and 4; any phene: mean % fraction of young adults exhibiting any phenotype (coiled, jerky-Unc or paralyzed) ([4]; 15uM): 80%; atypical locomotion (number of animals) [4, 9]: 0 and 17 and 18; coiled (number of animals) [4, 9]: 19 and 12 and 13 and 3 and 2; no phene (number of animals) [4, 9]: 0; paralyzed (number of animals) [4, 9]: 1 and 8 and 7 and 0; any phene: mean % fraction of young adults exhibiting any phenotype (coiled, jerky-Unc or paralyzed) ([4]; 60uM): 100% |
| Cc1cc([N+](=O)[O-])ccc1N1CCN(CC2CCCCC2)CC1 [Nemacol-23, 1-(cyclohexylmethyl)−4-(2-methyl-4-nitrophenyl)piperazine] | 0% | 0% | 0% | 0% | 0% | 0% | 5% | 100% | 1.667% | 0.8333% | 7.5% | > 60 µM | 32.1 ± 48.2 µM | 15.8333% | 33.3333% | 63.3333% | – |
| N#Cc1ccc(N2CCN(CC3CCCCC3)CC2)cc1 [Nemacol-24, 4-(4-(cyclohexylmethyl)piperazin-1-yl)benzonitrile] | 0% | 0% | 0% | 0% | 0% | – | 25% | 45% | – | – | – | – | 16.3 ± 10.5 µM | 8.333% | 45.8333% | 91.6667% | – |
| c1cc(N2CCN(CC3CCCCC3)CC2)ccn1 [Nemacol-22, 1-(cyclohexylmethyl)−4-(pyridin-4-yl)piperazine] | 0% | 0% | 0% | 0% | 0% | 0% | 0% | 10% | – | – | – | – | > 60 µM | 0% | 10.8333% | 24.1667% | – |
| Clc1ccc(N2CCN(C3CCCCCC3)CC2)cc1 [Nemacol-57] | 0% | 0% | 0% | 0% | 0% | – | 10% | 15% | – | – | – | – | 2.3 µM | – | – | – | atypical locomotion (number of animals) [4, 7]: 12 and 13 and 15; coiled (number of animals) [4, 7]: 3 and 1 and 2 and 7; no phene (number of animals) [4, 7]: 0 and 2 and 3; paralyzed (number of animals) [4, 7]: 5 and 4 and 1 and 0; any phene: mean % fraction of young adults exhibiting any phenotype (coiled, jerky-Unc or paralyzed) ([4]; 3.75uM): 92.5%; atypical locomotion (number of animals) [4, 8]: 0 and 2 and 4 and 6; coiled (number of animals) [4, 8]: 17 and 15 and 14 and 10 and 11; no phene (number of animals) [4, 8]: 0; paralyzed (number of animals) [4, 8]: 3 and 4 and 0 and 6; atypical locomotion (number of animals) [4, 9]: 0 and 2 and 1; coiled (number of animals) [4, 9]: 14 and 13 and 12 and 18 and 11; no phene (number of animals) [4, 9]: 0; paralyzed (number of animals) [4, 9]: 6 and 5 and 7 and 2 and 8 |
| O=[N+]([O-])c1ccc(N2CCN(CC3CC3)CC2)cc1 [Nemacol-28, 1-(cyclopropylmethyl)−4-(4-nitrophenyl)piperazine] | 0% | 0% | 0% | 0% | 0% | 5% | 5% | 15% | – | – | – | – | > 60 µM | 0% | 4.167% | 32.5% | – |
